The text below walks through data of US20090093669A1, “MAGNETOPHORESIS APPARATUS AND METHOD OF USE” (priority 2007, published 2009).

Where two headings read alike, the source gives them in different places.

The format of series [1] is in vitro ADME, beef. From the text:
Each individual magnet had: • a residual induction value of at least 1,500 mT (magnetization of 1,200,000 amp/meter); • diameter of about 12.7 mm; and a • thickness of about 6.35 mm.
The magnets were arranged in an alternating polarity sequence on an iron flux ring (the iron flux ring is shaped like a washer). This positioning increased the field in the direction away from the flux ring. This arrangement is similar to the standard QuadraBloc® sold by Gradient Technologies, LLC. The magnetic field at the center of a North Pole of the magnets was about 530 mT. The array was placed over the drug such that the face of the magnets (away from the flux ring and towards the skin) covered the drug solution applied to the test material or skin. This configuration is described in U.S. applications Ser. No. 11/469,346 which is incorporated by reference herein.
The TENS unit used in the following experiments was set for 20 volts with a pulse rate of 100 Hz and a pulse width of 200 microseconds. Other usable settings will influence the results as the strength of the field is directly proportional to all of the variables and increasing any of the variables will drive the drug faster. The settings are important for treating underlying pain; however, when drugs are being applied at the same time as the TENS is being utilized to treat pain, it generally is not desirable to use the highest settings. […]
The test system used to determine the rates of dispersion in tissue was commercial homogenized beef tissue with various levels of lipids (fat) to cells compressed into 3 mm sheets. […] The beef tissue was purchased with selected levels of fat present in the samples as measured by the producer. […] The drug or formulation to be tested was placed on top of the tissue stack and then after a specified time the stack was separated and the individual 3 mm layers (bologna sheet/slice) were analyzed for the drug content. The drug migration was analyzed by extracting the tissue at the various depths with solvents and then quantifying the drug in that sample. […]

The mark [2] stands for this setting: TENS electric field applied (20 volts, 100 Hz, 200 microseconds), fat free/low fat beef tissue.
Setting [3] is: control test, no applied field, fat free/low fat (lean) beef tissue, unit not given.
Where [4] appears, read: magnetic field applied, fat free/low fat beef tissue.
Where [5] appears, read: quadrapolar magnetic field applied (530 mT at surface), fat free/low fat beef tissue.

On to `O=C(c1ccccc1)c1ccc2n1CCC2C(=O)O` (stereo not drawn) [ketorolac], for which, where the note is “cattle”, the “enhancement of diffusion coefficient, TENS versus control” value (“enhancement … TENS versus control” below) is 6-8 times and the “enhancement of diffusion coefficient, magnetic field versus control” value (“enhancement … magnetic field versus control” below) was 4-5 times.
In the case of `CCN(CC)CC(=O)Nc1c(C)cccc1C` [lidocaine], the “diffusion coefficient Dx” value came to 0.12 mm^2/min under setting [2] and 0.04 mm^2/min under setting [5]. Besides, where the note is “TENS field applied, fat free/low fat beef tissue”, the “enhancement … TENS versus control” value is 4.4 times. Under setting [3], this molecule had a diffusion coefficient of 0.027. Moreover, under setting [4], the “enhancement … magnetic field versus control” value was “about 1.5 times”. In addition, where the note is “magnets applied, low fat beef tissue”, the “increase in diffusion coefficient, magnets versus control” value was 48%.
On to `COc1cc(CNC(=O)CCCC/C=C/C(C)C)ccc1O` [capsaicin], for which the “diffusion coefficient Dx” value is 0.30 mm^2/min under setting [2]; 0.02 mm^2/min (cattle, 0.075 %); 0.09 mm^2/min under setting [5]. Moreover, the “depth of penetration (front)” value (TENS electric field, first 30 minutes, fat free tissue) is on record as 12 mm. Further, for the setting “TENS electric field, 15 mm stack, fat free tissue”, the “time to totally penetrate the height of the stacks” value worked out at 60 min. Moreover, the diffusion coefficient (cattle) is 0.02. For the same molecule, where the note is “cattle”, the “enhancement … TENS versus control” value was determined as 15 times. Moreover, the “enhancement … magnetic field versus control” value under setting [4] is on record as 4.5 times. Further, the depth of penetration (magnetic field, 30 minutes, fat free tissue) is given as 7.5 mm; the depth of penetration (magnetic field, end of 240 minutes, total tissue system, fat free tissue) was determined as 15 mm; the depth of penetration (simple diffusion (control), 240 minutes, fat free tissue) was found to be 8 mm; the depth of penetration (simple diffusion (control), after 30 minutes, fat free tissue) was determined as 4.5 mm. The “rate of penetration, magnetic field versus control” value (magnetic field, fat free sample) is “doubled”. The “effect of TENS on the diffusion coefficient” value in series [1] is given as “minimal effect”. For the same molecule, in series [1] (cattle, 0.075 %), the “diffusion coefficient in lipid containing tissue versus lean tissue” value was “about 8 times”. In addition, in series [1] (cattle, 0.075 %), the “diffusion coefficient with magnets versus simple diffusion” value came out at 3 times.
Turning to insulin glargine, the “diffusion coefficient Dx” value is on record as 0.008 mm^2/min under setting [2] and 0.007 mm^2/min under setting [5]. The molecule further gave a diffusion coefficient under setting [3] of 0.002. Besides, the “enhancement … magnetic field versus control” value under setting [4] was “three and a half”.
`CCCCN1CCCCC1C(=O)Nc1c(C)cccc1C` (stereo not drawn) [bupivacaine]: where the note is “cattle”, the “enhancement … TENS versus control” value is recorded as 6-8 times and the “enhancement … magnetic field versus control” value is 4-5 times.
